{"source": "patent US11725011B2", "about": "“Bicyclic urea kinase inhibitors and uses thereof” (The Broad Institute, Inc., priority 2016, dated 2023)", "assay_in_all_cases": "KINOMEscan", "assay_type_in_all_cases": "binding", "details_in_all_cases": "1 uM", "key": {"[1]": {"target": "ABL1 (F317L)-phosphorylated (Homo sapiens (Human), UniProt P00519, F317L)"}, "SRPK2": {"target": "SRPK2 (Homo sapiens (Human), UniProt P78362)"}, "AKT1": {"target": "AKT1 (Homo sapiens (Human), UniProt P31749)"}, "TTK": {"target": "TTK (Homo sapiens (Human), UniProt P33981)"}, "RET": {"target": "RET (Homo sapiens (Human), UniProt P07949)"}, "ROCK1": {"target": "ROCK1 (Homo sapiens (Human), UniProt Q13464)"}, "PAK2": {"target": "PAK2 (Homo sapiens (Human), UniProt Q13177)"}, "KIT (A829P)": {"target": "KIT (A829P) (Homo sapiens (Human), UniProt P10721, A829P)"}, "YES": {"target": "YES (Homo sapiens (Human), UniProt P07947)"}, "[2]": {"target": "ABL1 (Q252H)-phosphorylated (Homo sapiens (Human), UniProt P00519, Q252H)"}, "FGFR3": {"target": "FGFR3 (Homo sapiens (Human), UniProt P22607)"}, "NEK1": {"target": "NEK1 (Homo sapiens (Human), UniProt Q96PY6)"}, "TSSK1B": {"target": "TSSK1B (Homo sapiens (Human), UniProt Q9BXA7)"}, "ERN1": {"target": "ERN1 (Homo sapiens (Human), UniProt O75460)"}, "CDC2L2": {"target": "CDC2L2 (Homo sapiens (Human), UniProt Q9UQ88)"}, "αK3A": {"target": "αK3A (Homo sapiens (Human), UniProt P49840)"}, "LIMK2": {"target": "LIMK2 (Homo sapiens (Human), UniProt P53671)", "sequence (P53671 whole entry)": "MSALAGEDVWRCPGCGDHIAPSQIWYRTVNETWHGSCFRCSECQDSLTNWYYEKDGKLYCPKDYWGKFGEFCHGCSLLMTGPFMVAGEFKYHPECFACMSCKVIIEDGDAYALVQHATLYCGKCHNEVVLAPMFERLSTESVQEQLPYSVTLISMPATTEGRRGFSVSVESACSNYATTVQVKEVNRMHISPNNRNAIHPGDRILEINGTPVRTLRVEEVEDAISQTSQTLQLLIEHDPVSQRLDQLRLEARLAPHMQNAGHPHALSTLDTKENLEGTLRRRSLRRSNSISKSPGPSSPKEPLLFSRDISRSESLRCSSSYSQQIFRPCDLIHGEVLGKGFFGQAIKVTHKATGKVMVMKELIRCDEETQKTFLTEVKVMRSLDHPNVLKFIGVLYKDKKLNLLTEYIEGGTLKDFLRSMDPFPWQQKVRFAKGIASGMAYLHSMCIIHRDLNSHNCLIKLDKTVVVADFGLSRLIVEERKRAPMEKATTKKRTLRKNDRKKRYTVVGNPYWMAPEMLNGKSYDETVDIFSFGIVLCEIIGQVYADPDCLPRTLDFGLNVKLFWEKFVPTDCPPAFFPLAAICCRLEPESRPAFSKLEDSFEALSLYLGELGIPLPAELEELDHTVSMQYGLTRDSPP"}, "CDK11": {"target": "CDK11 (Homo sapiens (Human), UniProt Q9BWU1)"}, "KIT": {"target": "KIT (Homo sapiens (Human), UniProt P10721)"}, "BIKE": {"target": "BIKE (Homo sapiens (Human), UniProt Q9NSY1)"}, "FLT3 (K663Q)": {"target": "FLT3 (K663Q) (Homo sapiens (Human), UniProt P36888, K663Q)"}, "ALK (C1156Y)": {"target": "ALK (C1156Y) (Homo sapiens (Human), UniProt Q9UM73, C1156Y)"}, "FGFR4": {"target": "FGFR4 (Homo sapiens (Human), UniProt P22455)"}, "DAPK1": {"target": "DAPK1 (Homo sapiens (Human), UniProt P53355)", "sequence (P53355 whole entry)": "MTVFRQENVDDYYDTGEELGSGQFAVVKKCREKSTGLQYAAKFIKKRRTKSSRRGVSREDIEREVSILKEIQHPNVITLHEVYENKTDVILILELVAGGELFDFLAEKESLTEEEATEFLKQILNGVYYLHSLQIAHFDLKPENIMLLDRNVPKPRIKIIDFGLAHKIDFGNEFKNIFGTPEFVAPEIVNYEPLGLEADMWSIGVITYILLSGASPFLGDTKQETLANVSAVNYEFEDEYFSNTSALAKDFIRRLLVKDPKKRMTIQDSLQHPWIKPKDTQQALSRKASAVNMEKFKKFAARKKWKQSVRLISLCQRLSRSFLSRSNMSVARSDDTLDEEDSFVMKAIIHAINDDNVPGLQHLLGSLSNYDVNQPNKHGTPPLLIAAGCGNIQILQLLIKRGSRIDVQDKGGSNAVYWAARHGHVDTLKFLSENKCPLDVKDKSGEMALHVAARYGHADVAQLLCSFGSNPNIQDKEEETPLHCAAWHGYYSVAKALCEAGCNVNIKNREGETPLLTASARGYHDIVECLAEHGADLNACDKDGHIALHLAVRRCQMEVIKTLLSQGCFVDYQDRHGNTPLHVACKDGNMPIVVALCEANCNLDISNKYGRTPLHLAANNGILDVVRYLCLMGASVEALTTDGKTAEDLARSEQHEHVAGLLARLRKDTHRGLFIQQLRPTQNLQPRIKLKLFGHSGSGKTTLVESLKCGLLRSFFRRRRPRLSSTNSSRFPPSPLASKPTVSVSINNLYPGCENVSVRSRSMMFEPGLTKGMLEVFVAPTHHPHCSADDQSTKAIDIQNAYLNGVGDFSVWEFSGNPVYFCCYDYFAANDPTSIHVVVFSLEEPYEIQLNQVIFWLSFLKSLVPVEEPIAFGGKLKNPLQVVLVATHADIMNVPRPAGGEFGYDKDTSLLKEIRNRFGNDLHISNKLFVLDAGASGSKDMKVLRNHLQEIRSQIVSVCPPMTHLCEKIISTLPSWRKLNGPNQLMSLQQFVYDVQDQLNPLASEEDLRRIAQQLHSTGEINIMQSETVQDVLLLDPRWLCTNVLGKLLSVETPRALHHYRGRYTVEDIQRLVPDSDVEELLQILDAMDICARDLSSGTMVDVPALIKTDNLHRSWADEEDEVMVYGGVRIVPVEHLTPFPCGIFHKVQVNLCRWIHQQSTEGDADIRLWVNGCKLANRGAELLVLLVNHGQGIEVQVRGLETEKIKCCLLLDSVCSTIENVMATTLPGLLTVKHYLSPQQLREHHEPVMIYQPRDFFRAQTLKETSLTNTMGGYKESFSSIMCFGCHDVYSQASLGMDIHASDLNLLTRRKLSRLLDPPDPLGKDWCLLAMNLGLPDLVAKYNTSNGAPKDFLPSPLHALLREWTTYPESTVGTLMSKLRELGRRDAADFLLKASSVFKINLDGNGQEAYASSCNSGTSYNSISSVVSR"}, "SRMS": {"target": "SRMS (Homo sapiens (Human), UniProt Q9H3Y6)"}, "GRK7": {"target": "GRK7 (Homo sapiens (Human), UniProt Q8WTQ7)", "sequence (Q8WTQ7 whole entry)": "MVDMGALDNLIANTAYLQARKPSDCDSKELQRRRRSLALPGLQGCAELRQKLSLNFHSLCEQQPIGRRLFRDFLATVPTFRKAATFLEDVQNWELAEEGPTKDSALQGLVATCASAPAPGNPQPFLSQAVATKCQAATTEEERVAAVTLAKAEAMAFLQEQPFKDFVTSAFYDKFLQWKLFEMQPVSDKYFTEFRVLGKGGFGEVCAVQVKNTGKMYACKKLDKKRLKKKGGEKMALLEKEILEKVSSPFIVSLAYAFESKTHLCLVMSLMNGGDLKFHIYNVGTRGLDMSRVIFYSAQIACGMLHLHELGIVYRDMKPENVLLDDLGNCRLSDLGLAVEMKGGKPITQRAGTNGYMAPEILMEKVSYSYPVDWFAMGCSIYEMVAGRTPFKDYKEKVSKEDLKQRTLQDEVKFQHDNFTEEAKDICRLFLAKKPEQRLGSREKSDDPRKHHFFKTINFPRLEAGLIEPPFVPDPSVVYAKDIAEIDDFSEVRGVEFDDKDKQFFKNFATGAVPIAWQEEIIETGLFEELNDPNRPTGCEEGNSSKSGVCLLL"}, "CIT": {"target": "CIT (Homo sapiens (Human), UniProt O14578)"}, "EPHA4": {"target": "EPHA4 (Homo sapiens (Human), UniProt P54764)"}, "MEK6": {"target": "MEK6 (Homo sapiens (Human), UniProt P52564)"}, "EPHA6": {"target": "EPHA6 (Homo sapiens (Human), UniProt Q9UF33)"}, "VRK2": {"target": "VRK2 (Homo sapiens (Human), UniProt Q86Y07)"}, "TEC": {"target": "TEC (Homo sapiens (Human), UniProt P42680)"}, "GSK3B": {"target": "GSK3B (Homo sapiens (Human), UniProt P49841)"}, "NIK": {"target": "NIK (Homo sapiens (Human), UniProt Q99558)"}, "ERBB4": {"target": "ERBB4 (Homo sapiens (Human), UniProt Q15303)", "sequence (Q15303 26-1308)": "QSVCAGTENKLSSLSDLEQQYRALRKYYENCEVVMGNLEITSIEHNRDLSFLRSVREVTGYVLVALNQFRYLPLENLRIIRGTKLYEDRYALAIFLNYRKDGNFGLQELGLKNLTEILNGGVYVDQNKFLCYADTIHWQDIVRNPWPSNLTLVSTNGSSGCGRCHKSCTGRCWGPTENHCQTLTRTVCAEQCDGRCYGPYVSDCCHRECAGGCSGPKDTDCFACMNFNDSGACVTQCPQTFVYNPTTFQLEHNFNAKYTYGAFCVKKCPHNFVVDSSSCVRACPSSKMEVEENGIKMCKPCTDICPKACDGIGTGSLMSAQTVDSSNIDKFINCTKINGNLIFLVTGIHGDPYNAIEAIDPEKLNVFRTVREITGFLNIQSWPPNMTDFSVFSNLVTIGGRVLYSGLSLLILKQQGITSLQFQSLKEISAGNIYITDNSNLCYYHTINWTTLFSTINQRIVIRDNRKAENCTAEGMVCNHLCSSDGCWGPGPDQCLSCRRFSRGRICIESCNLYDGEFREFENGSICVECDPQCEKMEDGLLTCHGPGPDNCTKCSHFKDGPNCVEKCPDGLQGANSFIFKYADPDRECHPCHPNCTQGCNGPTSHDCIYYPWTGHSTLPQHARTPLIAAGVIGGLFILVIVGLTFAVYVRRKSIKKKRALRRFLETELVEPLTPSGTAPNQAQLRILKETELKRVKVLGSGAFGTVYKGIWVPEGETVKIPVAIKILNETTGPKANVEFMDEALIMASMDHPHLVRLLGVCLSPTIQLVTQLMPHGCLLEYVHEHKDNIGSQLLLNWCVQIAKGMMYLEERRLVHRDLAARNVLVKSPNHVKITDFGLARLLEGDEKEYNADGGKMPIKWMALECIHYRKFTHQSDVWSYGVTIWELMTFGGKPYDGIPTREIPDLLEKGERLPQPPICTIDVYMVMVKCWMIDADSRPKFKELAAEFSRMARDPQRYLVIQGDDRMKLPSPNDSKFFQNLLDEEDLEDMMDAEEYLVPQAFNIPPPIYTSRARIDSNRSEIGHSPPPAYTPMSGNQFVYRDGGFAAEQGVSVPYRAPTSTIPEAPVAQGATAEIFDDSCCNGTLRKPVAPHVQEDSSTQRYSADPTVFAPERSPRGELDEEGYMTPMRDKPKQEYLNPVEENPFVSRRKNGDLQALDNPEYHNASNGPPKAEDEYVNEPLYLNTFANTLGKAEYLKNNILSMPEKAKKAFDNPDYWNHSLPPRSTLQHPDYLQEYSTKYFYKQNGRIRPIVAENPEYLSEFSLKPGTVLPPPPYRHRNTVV"}, "LZK": {"target": "LZK (Homo sapiens (Human), UniProt O43283)"}, "FYN": {"target": "FYN (Homo sapiens (Human), UniProt P06241)", "sequence (P06241 whole entry)": "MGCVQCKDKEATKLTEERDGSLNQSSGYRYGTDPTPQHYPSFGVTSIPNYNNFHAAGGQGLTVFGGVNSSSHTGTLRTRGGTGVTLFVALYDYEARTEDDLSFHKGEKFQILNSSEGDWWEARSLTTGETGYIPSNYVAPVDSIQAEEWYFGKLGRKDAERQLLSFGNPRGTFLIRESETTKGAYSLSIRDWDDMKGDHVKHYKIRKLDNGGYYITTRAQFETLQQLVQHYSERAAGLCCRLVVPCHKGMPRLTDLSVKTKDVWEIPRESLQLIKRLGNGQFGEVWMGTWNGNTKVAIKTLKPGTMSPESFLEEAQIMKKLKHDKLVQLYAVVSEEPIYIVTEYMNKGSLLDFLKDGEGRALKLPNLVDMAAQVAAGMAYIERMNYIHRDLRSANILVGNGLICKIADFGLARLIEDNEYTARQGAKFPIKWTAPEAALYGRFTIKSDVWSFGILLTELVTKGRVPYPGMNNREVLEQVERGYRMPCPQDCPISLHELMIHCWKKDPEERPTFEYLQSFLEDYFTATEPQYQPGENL"}, "PHKG2": {"target": "PHKG2 (Homo sapiens (Human), UniProt P15735)"}, "STK36": {"target": "STK36 (Homo sapiens (Human), UniProt Q9NRP7)"}, "LATS2": {"target": "LATS2 (Homo sapiens (Human), UniProt Q9NRM7)"}, "MEK1": {"target": "MEK1 (Homo sapiens (Human), UniProt Q02750)", "sequence (Q02750 whole entry)": "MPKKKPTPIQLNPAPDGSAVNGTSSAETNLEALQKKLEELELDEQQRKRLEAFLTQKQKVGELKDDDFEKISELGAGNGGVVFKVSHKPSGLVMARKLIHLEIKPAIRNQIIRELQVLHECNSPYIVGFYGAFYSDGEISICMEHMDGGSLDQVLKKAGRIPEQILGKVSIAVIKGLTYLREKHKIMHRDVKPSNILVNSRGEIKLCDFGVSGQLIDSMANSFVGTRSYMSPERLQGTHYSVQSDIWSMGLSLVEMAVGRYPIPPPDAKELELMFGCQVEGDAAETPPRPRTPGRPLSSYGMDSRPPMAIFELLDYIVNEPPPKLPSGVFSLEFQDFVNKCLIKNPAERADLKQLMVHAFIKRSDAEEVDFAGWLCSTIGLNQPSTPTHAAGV"}}}
{"smiles": "COc1ccc(N2C(=O)N(c3c(C)cccc3C)Cc3cnc(Nc4ccc(N5CCN(C)CC5)cc4)nc32)c(OC)c1", "note": "[HG-11-136-01]", "values": [{"measurement": "KINOMEscan ABL1 (F317L)-phosphorylated", "setting": "[1]", "value": 1.8}, {"measurement": "KINOMEscan SRPK2", "setting": "SRPK2", "value": 93}, {"measurement": "KINOMEscan AKT1", "setting": "AKT1", "value": 100}, {"measurement": "KINOMEscan TTK", "setting": "TTK", "value": 47}, {"measurement": "KINOMEscan RET", "setting": "RET", "value": 0}, {"measurement": "KINOMEscan ROCK1", "setting": "ROCK1", "value": 81}, {"measurement": "KINOMEscan PAK2", "setting": "PAK2", "value": 61}, {"measurement": "KINOMEscan KIT (A829P)", "setting": "KIT (A829P)", "value": 3.6}, {"measurement": "KINOMEscan YES", "setting": "YES", "value": 0.05}, {"measurement": "KINOMEscan ABL1 (Q252H)-phosphorylated", "setting": "[2]", "value": 0.25}, {"measurement": "KINOMEscan FGFR3", "setting": "FGFR3", "value": 0.95}, {"measurement": "KINOMEscan NEK1", "setting": "NEK1", "value": 88}, {"measurement": "KINOMEscan TSSK1B", "setting": "TSSK1B", "value": 50}, {"measurement": "KINOMEscan ERN1", "setting": "ERN1", "value": 13}, {"measurement": "KINOMEscan CDC2L2", "setting": "CDC2L2", "value": 83}, {"measurement": "KINOMEscan αK3A", "setting": "αK3A", "value": 100}, {"measurement": "KINOMEscan LIMK2", "setting": "LIMK2", "value": 0}, {"measurement": "KINOMEscan CDK11", "setting": "CDK11", "value": 89}, {"measurement": "KINOMEscan KIT", "setting": "KIT", "value": 0}, {"measurement": "KINOMEscan BIKE", "setting": "BIKE", "value": 8.8}, {"measurement": "KINOMEscan FLT3 (K663Q)", "setting": "FLT3 (K663Q)", "value": 31}, {"measurement": "KINOMEscan ALK (C1156Y)", "setting": "ALK (C1156Y)", "value": 12}, {"measurement": "KINOMEscan FGFR4", "setting": "FGFR4", "value": 2}, {"measurement": "KINOMEscan DAPK1", "setting": "DAPK1", "value": 63}, {"measurement": "KINOMEscan SRMS", "setting": "SRMS", "value": 0}, {"measurement": "KINOMEscan GRK7", "setting": "GRK7", "value": 96}, {"measurement": "KINOMEscan CIT", "setting": "CIT", "value": 58}, {"measurement": "KINOMEscan EPHA4", "setting": "EPHA4", "value": 0}, {"measurement": "KINOMEscan MEK6", "setting": "MEK6", "value": 30}, {"measurement": "KINOMEscan EPHA6", "setting": "EPHA6", "value": 0.2}, {"measurement": "KINOMEscan VRK2", "setting": "VRK2", "value": 86}, {"measurement": "KINOMEscan TEC", "setting": "TEC", "value": 2.6}, {"measurement": "KINOMEscan GSK3B", "setting": "GSK3B", "value": 100}, {"measurement": "KINOMEscan NIK", "setting": "NIK", "value": 36}, {"measurement": "KINOMEscan ERBB4", "setting": "ERBB4", "value": 0.2}, {"measurement": "KINOMEscan LZK", "setting": "LZK", "value": 4}, {"measurement": "KINOMEscan FYN", "setting": "FYN", "value": 0.35}, {"measurement": "KINOMEscan PHKG2", "setting": "PHKG2", "value": 93}, {"measurement": "KINOMEscan STK36", "setting": "STK36", "value": 0}, {"measurement": "KINOMEscan LATS2", "setting": "LATS2", "value": 60}, {"measurement": "KINOMEscan MEK1", "setting": "MEK1", "value": 0.55}]}
